Test results reported in paper PMC5335257, “Promoting in vivo remyelination with small molecules: a neuroreparative pharmacological treatment for Multiple Sclerosis” (Scientific Reports, 2017).
“Also recorded” adds a separate entry of the source.

Assays:
[1] = system: corpus callosum of cuprizone-fed mice; assay: In vivo remyelination, cuprizone demyelination model; design: species or system C57/BL6 male mice
Procedure: The protocol used was modified from previously described. Demyelination was induced by feeding 8 weeks old male C57/BL6 mice ad libitum with 0.2% cuprizone (bis-cyclo-hexanone-oxaldihydrazone; Sigma) mixed with milled chow (Altromin) for 5 weeks. A control group was maintained in the same conditions but fed with the chow without cuprizone. After cuprizone withdrawal, mice were intraperitoneally injected on 3 alternate days with PDE7-GSK3 inhibitors (VP1.15 or VP3.15; 10 mg/kg of animal) using a solution of the compound (100 mg/mL in DMSO) diluted 1:50 in a solution of 5% Tocrisolve (Tocris, UK) in distilledwater[36] or with the vehicle. 1 week after the cuprizone withdrawal, mice were transcardially perfused with 4% PFA in phosphate buffer. Another group was maintained for 3 weeks after cuprizone withdrawal and injected with 3 doses per week on alternate days of the PDE7-GSK3 inhibitors (10 mg/kg of animal per dose see above) or the vehicle and then perfused. The corpus callosum of three animals per condition was studied. For histological examination, forebrain coronal sections (20 μm) were taken of the rostral part of the corpus callosum as previously described[80][81] and stained with eriochrome cyanine using a standard protocol in order to study the myelin. Briefly, cryosections on glass slides were immersed in acetone for 5 minutes, dried and submerged in eriochrome cyanine solution (Sigma) for 1 hour and then differentiated in 5% (w/v) iron alum for 5–10 minutes, followed by a second differentiation with borax-ferricyanide solution for 5 minutes. The stained area was measured with the Image J software and related to the total analyzed area. For the immunofluorescence analysis, tissue sections were stained with anti-MBP (1:200; Serotec; Cat#MCA4095) for myelin, anti-PDGFRα (1:200; Santa Cruz; Cat#sc338) for OPCs, anti-CC1 (1:100; Calbiochem, Cat#OP80) and anti-GFAP (Glial fibrillary acidic protein; 1:200; Dako; Cat#Z0334) for astrocytes, and tomato lectin (TL; 1:67; Sigma; Cat#L0651) for microglia. Optical images were acquired using an Olympus BX61 microscope and fluorescence images were taken using a DFC480 FX digital camera (Leica) coupled to a Leica DM5000 B microscope or a confocal SP5 resonant scanner (Leica). Myelin staining (with MBP and eriochrome cyanine) and CC1 staining were quantified by taking pictures of non-overlapping fields of coronal sections of the corpus callosum, between the lateral ventricles (2 fields per section, 5–6 sections of each mice; using a x20 objective) and by measuring the fluorescence intensity or blue staining using the Image J software. The number of OPCs per field was also counted in pictures of the midline of the corpus callosum using the x40 objective (4–6 sections per mice). Astrocytes and microglia were evaluated in pictures of the same area of the corpus callosum using the x40 objective and quantified by measuring the area occupied by GFAP or TL staining respectively using the Image J software (4–6 sections per mice). Data were expressed as the mean ± SEM.

[2] = system: OPCs from P0 mice; assay: Proliferation assay (BrdU incorporation); format: cell-based, mouse; conditions: murine P0 OPCs, 1 μM, 72 h
Procedure: We isolated OPCs, as previously described. Briefly, a stock papain solution was prepared containing ([…]; Worthington Biochemical), L-cysteine (0.2 mg/ml; Sigma), and EDTA (0.2 mg/ml; Sigma) in Hank’s Balanced Salt Solution (HBSS; Invitrogen) without Ca^2+ and Mg[2]. Then, the cerebral cortices of P0 CD1 mice were dissected out and placed for 5 minutes at 37 °C in a medium containing the stock papain solution in HBSS with Ca^2+ and Mg^2+ (1:10; Invitrogen) in order to easily remove the meninges. […] The resulting enriched oligodendrocyte progenitor cell suspension was counted and seeded.
OPCs were placed on coverslips coated with poly-L-lysine (Sigma) and laminin (Sigma; 2 × 10^4 cells/well) and they were incubated with the inhibitors (VP3.15 or TDZD8; 1 μM) in the serum free medium described above. After 42 h in culture, BrdU (50 μM; Sigma) was added for 6 h and after a total of 72 h in culture, the cells were fixed and BrdU incorporation was detected by immunocytochemistry (1:20; G3G4, HybridomaBank) combined with the detection of the oligodendroglial marker Olig2 (1:250; Millipore; Cat#AB9610). […]

[3] = system: OPCs isolated from P0 mice; assay: Differentiation assay, murine OPCs; format: cell-based, mouse
Procedure: We isolated OPCs, as previously described. Briefly, a stock papain solution was prepared containing ([…]; Worthington Biochemical), L-cysteine (0.2 mg/ml; Sigma), and EDTA (0.2 mg/ml; Sigma) in Hank’s Balanced Salt Solution (HBSS; Invitrogen) without Ca^2+ and Mg[2]. Then, the cerebral cortices of P0 CD1 mice were dissected out and placed for 5 minutes at 37 °C in a medium containing the stock papain solution in HBSS with Ca^2+ and Mg^2+ (1:10; Invitrogen) in order to easily remove the meninges. Once meninges and choroid plexus were removed, the tissue was enzymatically dissociated for 5 minutes at 37 °C again by using the papain solution (1:10 in HBSS without Ca^2+ and Mg^2+) and the digested tissue was then filtered through a 100 μm nylon mesh strainer (BD Biosciences) and seeded on poly-L-ornithine-coated (Sigma) 75 cm^2 flasks in DMEM medium (Invitrogen) containing 10% foetal bovine serum (FBS; BioWhittaker) and 100 U/mL penicillin, 0.1 mg/mL streptomycin and 0.25 μg/ml Amphotericin B antibiotic antimycotic solution (Sigma). Cultures were maintained at 37 °C and 5% CO2, and the medium was changed every 3 days. When the cultures reached confluence, they were shaken overnight at 250 rpm and at 37 °C in order to detach the OPCs located on the top of the confluent astrocyte monolayer and the medium was then filtered through a 40μm nylon mesh strainer (BDBiosciences) and centrifuged at 900 rpm. Cells were seeded twice (45 minutes each) in bacterial grade Petri dishes (Sterilin) to remove microglial cells. The resulting enriched oligodendrocyte progenitor cell suspension was counted and seeded.
Purified OPCs were placed on coverslips coated with poly-L-lysine and laminin in 24-well tissue culture dishes at a density of 2 × 10^4 cells/well. To promote differentiation, the cells were maintained in the differentiation medium (described above) and PDE7-GSK3 or GSK3 inhibitors (VP3.15 or TDZD8; 1 μM) were added to the culture medium. Different controls were used for the dual or single inhibitors due to the active substance being dissolved in differing amounts of DMSO. After 5, 7 and 10 DIV the cells were fixed with 4% PFA for further immunocytochemical analysis. Anti-CNPase antibodies (1:200;Covance; Cat#SMI-91R), anti-MBP antibodies (1:200; Serotec; Cat#MCA4095) for detecting oligodendrocytes and anti-Olig2 antibodies (1:250; Millipore; Cat#AB9610) as a marker for all oligodendroglial stages were used. Ten random fluorescence digital images were taken in each coverslip with a DFC480 FX digital camera (Leica) coupled to a Leica DM5000 B microscope for quantification. Data were expressed as a mean ratio of differentiated oligodendrocytes (CNPase^+-Olig2^+ double positive cells) with respect to total Olig2^+ cells ± SEM or percentage of CNPase^+ cells respect to control ± SEM, in at least three independent experiments, except with human samples (two independent experiments).

[4] = murine P0 OPCs, 1 μM, 5, 7 and 10 DIV

Q: How did the “myelin staining (eriochrome cyanine) in corpus callosum vs vehicle” value ([1]; 10 mg/kg i.p. on 3 alternate days, 1 week after cuprizone withdrawal) turn out when c1ccc(-c2n/c(=N/CCN3CCOCC3)sn2-c2ccccc2)cc1 [VP3.15] was run?
A: significantly higher myelin staining; also recorded: almost complete remyelination

Q: And the “myelin quantification by MBP immunodetection” value ([1]; 10 mg/kg i.p., after cuprizone withdrawal)?
A: confirmed these results, with similar effects

Q: And the “microglial activation (TL staining) vs vehicle” value ([1]; 1 week after cuprizone withdrawal)?
A: Neither VP1.15 nor VP3.15 induced changes

Q: And the “number of OPCs (PDGFRα+ cells) vs vehicle” value ([1]; one week after cuprizone withdrawal)?
A: significantly lower number of OPCs

Q: What about the “OPC proliferation (BrdU+-Olig2+ cells)” value [2] of the same compound?
A: no changes

Q: What about the “number of mature oligodendrocytes (CNPase+-Olig2+ cells) vs control” value [3, 4] of the same compound?
A: significant increase

Q: And the “number of mature oligodendrocytes (MBP+-Olig2+ cells) vs control” value [3, 4]?
A: significant increase

Q: What about the “number of primary cytoplasmic processes” value ([3]; murine mature oligodendrocytes, control 4.9 ± 0.35, p = 0.64) of the same compound?
A: 4.7 ± 0.31

Q: And the “number of cytoplasmic subprocesses” value ([3]; murine mature oligodendrocytes, control 8.588 ± 0.875, p = 0.62)?
A: 8.111 ± 0.970
